Assays:
[1] = tested on: mRNA expression in peripheral blood of individuals with DMD; assay: Whole-blood gene expression microarray: DMD administered prednisone or deflazacort vs DMD not administered steroid; type: in vivo, human
Description: Fifteen ml of blood was collected from each individual into 6 PAXgene® Vacutainer® tubes (PreAnalytiX, Germany) by antecubital fossa venipuncture. PAXgene® tubes contain a proprietary reagent that immediately stabilizes RNA, thus reducing RNA degradation and minimizing gene expression changes following phlebotomy. The tubes were then inverted 20 times, then remained undisturbed for 2 h at room temperature (about 19° C. to about 22° C.), and then stored at -70° C. until processed. Total RNA was isolated using the Paxgene® blood RNA kit (PreAnalytiX, Germany) according to the manufacturers instructions. The RNA isolated is from all cells in whole blood. […] Sample labeling, hybridization to chips, and image scanning were performed using standard Affymetrix protocols. For each whole blood sample from control individuals and individuals with DMD, total RNA was labeled using the One-Cycle Target Labeling protocol and hybridized to the arrays. […] Double-stranded cDNA synthesis, biotin-labeled cRNA synthesis, and cRNA fragmentation were performed according to the Affymetrix GeneChip Eukaryotic Expression Analysis protocol. […] After hybridization, the array was washed and stained. […] After scanning the array, the raw probe level values for each probe were saved in Affymetrix.cel files. […] Statistical analyses, including t-test analyses, unsupervised hierarchical clustering, and principal component analyses were conducted using Genespring 7.2 software ([…]® 7, Silicon Genetics, Redwood City Calif.). […] Corrections for multiple comparisons used a Benjamini-Hochberg False Discovery Rate (FDR) of 0.05, disclosed in Tang et al., J Cereb Blood Flow Metab 26 (2006) 1089, which is expressly incorporated by reference herein in its entirety. […] Individuals with DMD were evaluated and had been diagnosed by a single board-certified pediatric neurologist. The diagnosis of DMD was based in part upon clinical history, examination findings, and selected muscle biopsies and was confirmed by molecular diagnostic testing. […] Sample processing and array hybridization, probe-level data analysis, and statistical analysis were identical to Example 1.

individuals with DMD = conditions: cited from earlier work
[2] = DMD administered deflazacort or prednisone vs not administered

CC(=O)OCC(=O)[C@@]12N=C(C)O[C@@H]1C[C@H]1[C@@H]3CCC4=CC(=O)C=C[C@]4(C)[C@H]3[C@@H](O)C[C@@]12C [deflazacort]
expression levels of FKBP5 [1, 2]: up-regulated
expression levels of genes in the chondroitin sulfate biosynthesis pathway [1, 2]: up-regulated
expression levels of haptoglobin and CD163 nucleic acids [1, 2]: up-regulated
expression levels of lactotransferrin and lipocalin [1, 2]: increased expression levels
expression of KFL10 ([1]; individuals administered prednisone, deflazacort, or both vs DMD not administered any agent): up-regulated
side effects / weight gain (individuals with DMD; DMD individuals receiving deflazacort, relative to prednisone): fewer side effects, in particular, less weight gain
muscle function and strength (individuals with DMD; individuals with DMD): improved muscle function and strength
